Measurements reported in US8883852B2, “Radioprotective agents” (University of Pittburgh—Of the Commonwealth System of …, priority 2008, dated 2014).
“Also recorded” adds a separate entry of the source.

Columns and labels:
BEAS-2B cells = test: Irradiation-induced cell death, flow cytometry; type: cell-based, human; settings: 1-h prior to irradiation (10 Gy)
Protocol: (§1) Cells were cultured in fresh medium prior to irradiation and were γ-irradiated with a Shepherd model 143-45A irradiator (J. L. Shepherd & Associates, CA) at a dose rate of 4 Gy/min. Cells were incubated with drugs at the indicated concentrations 1 h before or 30 min after irradiation. Cell viability was determined using phosphatidylserine (PS) externalization/propidium iodide (PI) permeabilization assay or LDH Assay after 72 h post-irradiation incubation.
(§2) After 72 h post-irradiation incubation, attached cells were harvested by trypsinization and pooled with detached cells from supernatant. Harvested cells were then stained with annexin-V-FITC and PI for 5 min in the dark prior to flow cytometry analysis (FACscan, Becton-Dickinson, Rutherford, N.J.). Cell debris was gated out by forward and side scatter under the same conditions, and a minimum of 10,000 gated cells were acquired. Percentages of annexin-V-positive cells were calculated by combining annexin V+/PI− (early apoptotic) and annexin V+/PI+ (late apoptotic or necrotic) cells.
(§3) Cells were exposed to γ-irradiation at different doses (10 or 25 Gy) based on their radiosensitivity. […] The mechanisms responsible for the differences in glyburide response are not known but are worthy of further investigation.

U-87 MG cells = test: Irradiation-induced cell death, flow cytometry; type: cell-based, human; settings: 1-h prior to irradiation (10 Gy)
Protocol: as §1, §2, §3

[1] = Hypoglycemia at the dose of glyburide used in the present study; type: in vivo
human primary astrocytes = test: Irradiation-induced cell death, LDH release assay; type: cell-based; settings: 50 and 100 μM, 1-h prior to irradiation (25 Gy)
Protocol: as §1
For human primary astrocytes, cell viability was determined by assaying the medium from each sample for LDH activity according to the manufacturer's instructions (Sigma). The enzyme activity from the culture medium and floating cells were used as an index of cell death. To determine total LDH activity, the adherent cells were lysed in 0.5% Triton X-100 and assayed for LDH activity, this cell-associated LDH activity was then added to the LDH activity in the removed culture medium. The amount of LDH present in the medium was calculated as a percentage of the total, which was used to calculate the percent cell death in the corresponding samples.
as §3

32D cl 3 cells = test: In vitro irradiation survival curves (clonogenic survival assay); type: cell-based, mouse
Protocol: The cells were irradiated with doses ranging from 0 to 8 Gy. The 32D cl 3 cells were plated in methycellulose, incubated at 37° C. for one week at which time colonies of greater than 50 cells were counted (Epperly, M. W. et al. Mitochondrial localization of superoxide dismutase is required for decreasing radiation induced cell damage. Radiat. Res. 160, 568-578 (2003) and Epperly, M. W. et al. Ethyl pyruvate, a potentially effective total body irradiation damage mitigator. Radiat. Res. 168, 552-559 (2007)). The data were analyzed using linear quadratic and single-hit, multi-target models (Id.).

T98G cells = test: Irradiation-induced cell death, PS externalization/PI permeabilization by flow cytometry; type: cell-based, human; settings: for irradiation induced cell death (PS externalization/PI permeability): drug 1-h prior to 25 Gy γ-irradiation, glyburide 12.5-200 μM, 72 h post-irradiation
Protocol: as §1, §2
In the present study, we selected 10 chemicals that targeted 13 candidate siRNA gene transcripts for further study (Table 3). The radioprotective effects of the compounds were tested in T98G cells, which were initially used in the siRNA screen. […] The other nine chemicals lacked any obvious protective effect on γ-irradiation induced cell death under the current experimental conditions (FIG. 4A).

KM101 cells = test: Irradiation-induced cell death, cell-based assay; design: species or system human; settings: γ-irradiated (10 or 25 Gy), data not shown
Protocol: as §1, §3

HeLa cells = test: Irradiation-induced cell death, cell-based assay; design: species or system human; settings: γ-irradiated (10 or 25 Gy), data not shown
Protocol: as §1, §3

H1299 cells = test: Irradiation-induced cell death, cell-based assay; design: species or system human; settings: γ-irradiated (10 or 25 Gy), data not shown
Protocol: as §1, §3

C57BL/6NHsd female mice = test: In vivo irradiation survival curves, total body irradiation; design: species or system mouse
Description: Other groups of mice were control mice, or vehicle only irradiated mice.
The mice were followed for the development of irradiation induced damage to the hematopoietic system which occurs within the first 30 days after irradiation (FIG. 7).

COc1ccc(Cl)cc1C(=O)NCCc1ccc(S(=O)(=O)NC(=O)NC2CCCCC2)cc1 [glyburide, 5-chloro-N-[2-[4-(cyclohexylcarbamoylsulfamoyl)phenyl]ethyl]-2-methoxy-benzamide]
radioprotection (BEAS-2B cells): effective radioprotection
radioprotection (BEAS-2B cells; listed as Glyburide): effectively relieved irradiation induced cell death
radioprotection (U-87 MG cells): effective radioprotection
radioprotection (U-87 MG cells; listed as Glyburide): effectively relieved irradiation induced cell death
hypoglycemia [1]: did not cause hypoglycemia
radioprotection (human primary astrocytes): effective radioprotection
radioprotection (human primary astrocytes; listed as Glyburide): effectively relieved irradiation induced cell death
n or shoulder on the irradiation survival curve (32D cl 3 cells; 10 μM in methylcellulose following irradiation (0-8 Gy)): 2.5±0.9
survival of 32D cl 3 cells (32D cl 3 cells; 10 μM, 1-h before irradiation (0-8 Gy)): significantly increased the survival
protection over a range of irradiation exposure (T98G cells; 200 μM, 1-h prior to 5-25 Gy): effectively protected cells
irradiation induced apoptosis, post-irradiation treatment (T98G cells; added 30-min after γ-irradiation (25 Gy)): protected cells from irradiation induced apoptosis to a similar extent
irradiation induced cell death (PS externalization/PI permeability) (T98G cells): attenuated irradiation induced cell death in a concentration-dependent manner; also recorded: demonstrated radioprotective effect
irradiation induced cell death (PS externalization/PI permeability) (T98G cells; listed as Glyburide): effectively relieved irradiation induced cell death
radioprotection (KM101 cells): no protective effect; also recorded: only limited protection
radioprotection (HeLa cells): no protective effect; also recorded: only limited protection
radioprotection (H1299 cells): no protective effect; also recorded: only limited protection
survival compared to irradiated controls (C57BL/6NHsd female mice; 5 mg/kg i.p. 10 min after 9.5 Gy total body irradiation): no significant increase in survival; also recorded: not protected from irradiation
survival compared to irradiated controls and vehicle only (C57BL/6NHsd female mice; 5 mg/kg i.p. 10 min before 9.5 Gy total body irradiation, P=0.04): significantly increased survival; also recorded: protected as seen by an increase in survival; also recorded: increased the survival rate
mice survived (C57BL/6NHsd female mice; 5 mg/kg intraperitoneal 10 min before 9.5 Gy total body irradiation): 60%
mice survived (C57BL/6NHsd female mice; glyburide injected 10-min after 9.5 Gy total body irradiation): 44%
